Results reported in ChEMBL document CHEMBL2321802, “Identification of Potent and Selective Diphenylpropanamide RORγ Inhibitors” (ACS Med Chem Lett, 2013).
Calls of active or inactive are those of the source. The calls are words filed in the database; no cut-off is given here.

Legend:
[1] = target: T1, Probable nuclear hormone receptor HR3 (Drosophila melanogaster) (UniProt P31396); assay: Antagonist activity at Drosophila melanogaster transactivation domain of DHR3 expressed in Drosophila Schneider cells co-expressing Gal4-DNA binding domain up to 96 uM; assay type: cell-based; conditions: Schneider 2
T1 sequence (whole entry): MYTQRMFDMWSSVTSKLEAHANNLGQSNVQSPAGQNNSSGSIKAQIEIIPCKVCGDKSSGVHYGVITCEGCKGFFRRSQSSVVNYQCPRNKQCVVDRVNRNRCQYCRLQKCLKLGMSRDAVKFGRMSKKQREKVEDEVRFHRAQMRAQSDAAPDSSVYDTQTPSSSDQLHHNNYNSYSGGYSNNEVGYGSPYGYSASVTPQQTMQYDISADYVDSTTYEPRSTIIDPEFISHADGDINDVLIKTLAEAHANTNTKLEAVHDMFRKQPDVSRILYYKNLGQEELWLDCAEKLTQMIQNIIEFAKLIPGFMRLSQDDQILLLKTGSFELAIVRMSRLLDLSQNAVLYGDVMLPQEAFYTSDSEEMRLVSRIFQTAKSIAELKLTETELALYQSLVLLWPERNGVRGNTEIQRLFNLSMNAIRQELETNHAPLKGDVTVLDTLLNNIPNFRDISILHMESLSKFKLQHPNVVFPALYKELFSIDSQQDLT

[2] = Cytotoxicity against human Th17 cells up to 96 uM; assay type: cell-based
Schneider 2 = assay: Antagonist activity at HSV transactivation domain of VP16 expressed in Drosophila Schneider cells co-expressing Gal4-DNA binding domain up to 96 uM; assay type: cell-based; conditions: Human alphaherpesvirus 1
[3] = target: T2, Nuclear receptor ROR-alpha (Homo sapiens) (UniProt P35398); assay: Antagonist activity at transactivation domain of RORalpha (unknown origin) expressed in Drosophila Schneider cells co-expressing Gal4-DNA binding domain up to 96 uM; assay type: cell-based; conditions: Schneider 2
T2 sequence (whole entry): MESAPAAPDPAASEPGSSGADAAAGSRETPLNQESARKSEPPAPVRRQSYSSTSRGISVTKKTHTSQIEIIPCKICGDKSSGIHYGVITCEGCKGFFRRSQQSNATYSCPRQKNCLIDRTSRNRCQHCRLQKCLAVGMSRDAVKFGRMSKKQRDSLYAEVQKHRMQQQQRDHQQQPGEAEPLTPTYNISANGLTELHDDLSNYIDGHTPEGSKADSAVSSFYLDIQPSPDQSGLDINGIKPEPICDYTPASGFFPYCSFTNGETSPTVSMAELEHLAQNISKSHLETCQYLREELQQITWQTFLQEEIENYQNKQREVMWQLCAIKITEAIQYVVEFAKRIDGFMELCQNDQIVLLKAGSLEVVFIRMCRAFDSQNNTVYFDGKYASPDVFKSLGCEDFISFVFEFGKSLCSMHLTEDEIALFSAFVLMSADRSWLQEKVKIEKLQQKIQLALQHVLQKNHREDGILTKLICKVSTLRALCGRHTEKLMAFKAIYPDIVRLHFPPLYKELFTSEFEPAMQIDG

[4] = target: T3, Nuclear receptor ROR-gamma (Homo sapiens, UniProt P51449); assay: Antagonist activity at transactivation domain of RORgammat (unknown origin) expressed in Drosophila Schneider cells co-expressing Gal4-DNA binding domain; assay type: cell-based, Schneider 2
T3 sequence (P51449 whole entry): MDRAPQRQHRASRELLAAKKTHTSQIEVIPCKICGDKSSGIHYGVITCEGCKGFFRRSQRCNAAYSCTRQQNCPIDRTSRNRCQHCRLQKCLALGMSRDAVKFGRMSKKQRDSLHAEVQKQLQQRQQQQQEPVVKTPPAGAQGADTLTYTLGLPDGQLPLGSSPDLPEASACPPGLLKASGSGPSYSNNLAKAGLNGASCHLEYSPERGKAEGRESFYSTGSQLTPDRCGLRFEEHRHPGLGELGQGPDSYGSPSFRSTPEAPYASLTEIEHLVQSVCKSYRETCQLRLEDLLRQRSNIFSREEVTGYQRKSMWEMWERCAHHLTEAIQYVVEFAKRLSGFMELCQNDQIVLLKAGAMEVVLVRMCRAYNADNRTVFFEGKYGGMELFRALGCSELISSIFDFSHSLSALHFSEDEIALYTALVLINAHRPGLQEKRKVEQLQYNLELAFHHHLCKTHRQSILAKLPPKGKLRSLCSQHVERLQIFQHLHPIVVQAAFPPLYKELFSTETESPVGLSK

Row | SMILES | inhibition [1] | Activity [2] | inhibition (Schneider 2) | inhibition [3] | IC50 ([4]; read-out: IC50) | IC50 ([4]; schneider 2)
1 | COc1cc(O)c(C(CC(=O)N2CCCC(C)(C)C2)c2ccc3c(c2)OCO3)c(OC)c1 (stereo unspecified) | inactive | Non-toxic | inactive | inactive | – | –
2 | COc1cc(O)c(C(CC(=O)N2C[C@@H](C)O[C@@H](C)C2)c2ccc3c(c2)OCO3)c(OC)c1 (stereo partly specified) | inactive | Non-toxic | inactive | inactive | – | –
3 | CCN(CC)C(=O)CC(c1ccc2c(c1)OCO2)c1c(O)cc(OC)cc1OC (stereo unspecified) | inactive | Non-toxic | inactive | inactive | > 50 µM | –
4 | COc1cc(O)c(C(CC(=O)N2C[C@H](C)C[C@H](C)C2)c2ccc(C(F)(F)F)cc2)c(OC)c1 (stereo partly specified) | inactive | Non-toxic | inactive | inactive | – | –
5 | COc1cc(O)c(C(CC(=O)N2CCOCC2)c2ccc3c(c2)OCO3)c(OC)c1 (stereo unspecified) | inactive | Non-toxic | inactive | inactive | – | Not Active
6 | COc1cccc(C(CC(=O)N2C[C@H](C)C[C@H](C)C2)c2c(O)cc(OC)cc2OC)c1 (stereo partly specified) | inactive | Non-toxic | inactive | inactive | – | –
7 | COc1cc(O)c(C(CC(=O)N2CCCC(C)C2)c2ccc3c(c2)OCO3)c(OC)c1 (mixture of isomers) | inactive | Non-toxic | inactive | inactive | 3.3 µM | –
8 | C[C@H]1O[C@@H](O[C@H]2[C@@H](O)C[C@H](O[C@H]3[C@@H](O)C[C@H](O[C@H]4CC[C@@]5(C)[C@H](CC[C@@H]6[C@@H]5C[C@@H](O)[C@]5(C)[C@@H](C7=CC(=O)OC7)CC[C@]65O)C4)O[C@@H]3C)O[C@@H]2C)C[C@H](O)[C@@H]1O [DIGOXIN] | – | – | – | – | 2 µM | –
9 | COc1ccc(C(CC(=O)N2C[C@H](C)C[C@H](C)C2)c2c(O)cc(OC)cc2OC)cc1 (stereo partly specified) | inactive | Non-toxic | inactive | inactive | – | –
10 | COc1cc(O)c(C(CC(=O)N2CCCCC2)c2ccc3c(c2)OCO3)c(OC)c1 (stereo unspecified) | inactive | Non-toxic | inactive | inactive | 15.7 µM | –
11 | COc1cc(O)c(C(CC(=O)N2CCCCC2C)c2ccc3c(c2)OCO3)c(OC)c1 (mixture of isomers) | inactive | Non-toxic | inactive | inactive | – | –
12 | COc1ccc(C(CC(=O)N2CCCC(C)C2)c2c(O)cc(OC)cc2OC)cc1 (mixture of isomers) | inactive | Non-toxic | inactive | inactive | 2.5 µM | –
13 | COc1cc(O)c(C(CC(=O)N2C[C@H](C)C[C@H](C)C2)c2ccc(C)cc2)c(OC)c1 (stereo partly specified) | inactive | Non-toxic | inactive | inactive | – | –
14 | CCCCNC(=O)CC(c1ccc2c(c1)OCO2)c1c(O)cc(OC)cc1OC (stereo unspecified) | inactive | Non-toxic | inactive | inactive | – | –
15 | CC1CCCN(C(=O)CC(c2ccc3c(c2)OCO3)c2cc(-c3ccccc3)ccc2O)C1 (mixture of isomers) | inactive | Non-toxic | inactive | inactive | – | –
16 | COc1cc(O)c(C(CC(=O)N2C[C@H](C)C[C@H](C)C2)c2ccc(Cl)cc2)c(OC)c1 (stereo partly specified) | inactive | Non-toxic | inactive | inactive | – | –
17 | COc1cc(O)c(C(CC(=O)Nc2ccc(C)cc2)c2ccc3c(c2)OCO3)c(OC)c1 (stereo unspecified) | inactive | Non-toxic | inactive | inactive | > 50 µM | –
18 | COc1cc(O)c(C(CC(=O)N2CCCCCC2)c2ccc3c(c2)OCO3)c(OC)c1 (stereo unspecified) | inactive | Non-toxic | inactive | inactive | – | –
19 | COc1cc(O)c(C(CC(=O)N2CCC(C)CC2)c2ccc3c(c2)OCO3)c(OC)c1 (stereo unspecified) | inactive | Non-toxic | inactive | inactive | – | –
20 | COc1cc(O)c(C(CC(=O)N2C[C@@H](C)N[C@@H](C)C2)c2ccc3c(c2)OCO3)c(OC)c1 (stereo partly specified) | inactive | Non-toxic | inactive | inactive | – | Not Active
21 | COc1cc(OC)c(C(CC(=O)N2CCCC(C)C2)c2ccc3c(c2)OCO3)c(OC)c1 (mixture of isomers) | inactive | Non-toxic | inactive | inactive | – | –
22 | COc1cc(O)c(C(CC(=O)N2CCCC2)c2ccc3c(c2)OCO3)c(OC)c1 (stereo unspecified) | inactive | Non-toxic | inactive | inactive | > 50 µM | –
23 | COc1ccc(C(CC(=O)N2CCCC(C)C2)c2ccc3c(c2)OCO3)c(O)c1 (mixture of isomers) | inactive | Non-toxic | inactive | inactive | – | –
24 | COc1cccc(O)c1C(CC(=O)N1CCCC(C)C1)c1ccc2c(c1)OCO2 (mixture of isomers) | inactive | Non-toxic | inactive | inactive | – | –
